Data on one molecule can be found in patent US20230042599A1, “CELLULOSIC COMPOUNDS AND AGRICULTURAL USES THEREOF” (HELIAE DEVELOPMENT, LLC, priority 2021, published 2023).

The subject of assay [1] is co-culture of Gram-negative Kosakonia pseudosacchari strain JM-387 and Pseudomonas aylmerense strain S1E40. Nature of the assay: Desiccation resistance (viability, CFU) of a bacterial co-culture mixed with protectant agents. The format is cell-based. Conditions: after 3, 5 and 7 days of desiccation stress, protectants at 1% (whole broth and cell pellet undiluted).
In assay [2] the test system is rifampicin-resistant strain of a Gram-negative Kosakonia sp. bacterium. Nature of the assay: Desiccation resistance (viability, CFU) of Kosakonia sp. cells mixed with protectant agents and dried in 96-well plates. The format is cell-based. Conditions: after 5 days and 7 days of desiccation stress; protectants at 1% or 0.5% (whole broth and cell pellet undiluted or 2x dilution). The source says: A rifampicin-resistant strain of a Gram-negative Kosakonia sp. bacterium was mixed with water (untreated control or “UTC”), trehalose, carboxymethylcellulose (“CMC”), methylcellulose (“MC”), extracellular polymeric substance from Parachlorella kessleri Accession No. NCMA 202103001 (“EPS”), sodium alginate (“Na-Alginate”), Parachlorella kessleri Accession No. NCMA 202103001 whole broth (“3001 Broth”), or Parachlorella kessleri Accession No. NCMA 202103001 cell pellet after centrifugation (“3001 Pellet”) in 96-well plates. Each of the protectant agents was added undiluted (i.e., at a 1× dilution) or at a 2× dilution (i.e., at […] to 1 part protectant) for whole broth and cell pellets or at a concentration of 1% (i.e., 1 g/100 mL) or 0.5% (i.e., 0.5 g/100 mL) for all other protectants. […]
The liquid medium in the plates was allowed to dry at room temperature inside a desiccation chamber for several days to create desiccation stress in the bacterial cell cultures. […] The bacterial cells were evaluated for survival and growth after 5 days of desiccation stress and after 7 days of desiccation stress.
The colony forming unit (CFU) data in these figures were generated by counting the number of colonies on each spot (see spots on representative plates shown in FIGS. 2A, 2B, and 2C) and using the following formula for quantifying viable cell density: […]

Take `OC[C@H]1O[C@H](O[C@H]2O[C@H](CO)[C@@H](O)[C@H](O)[C@H]2O)[C@H](O)[C@@H](O)[C@@H]1O` [Trehalose]: in assay [1], the “protective effect on the Gram-negative bacterial cells (viability after desiccation stress)” value was “demonstrated a protective effect”. The “protective effect on the Kosakonia sp. cells (viability after desiccation stress)” value in assay [2] is given as “demonstrated a protective effect”.
